Data from patent publication US11911406B2, “PH-responsive polymer-drug conjugates for enhanced antibacterial efficacy” (priority 2020, dated 2024).

Assays:
E. coli ATCC 25922 [1] = experiment: Evaluation of antibiotic resistance development (serial passaging); format: cell-based; details: sub-lethal dose (0.5 MIC)
Experimental: Evaluation of antibiotic resistance development. E. coli ATCC 25922 was employed to study the drug resistance development under sublethal dose treatments of free streptomycin, cationic polymer or the PDC. During a serial of passages, the MIC of each treatment was measured by the broth microdilution method as described above, and the bacteria were exposed to ½MIC at that particular passage. MIC for each passage was recorded and normalized to that of the first passage to determine the drug resistance enhancement.

MRSA biofilm = experiment: Biofilm inhibition assay (crystal violet); format: cell-based, S. aureus
Experimental: Biofilm inhibition assays. Exponentially growing bacteria were inoculated into 96 well plates (1×10^4 cell/well) containing MHB broth with 2% (v/w) glucose, incubated under stationary conditions at 37° C. for one day. After biofilm formation, the media was discarded and the plates were washed with PBS to remove the planktonic bacteria. Fresh NMB broth containing serially diluted free streptomycin or PDC were added to the plates and incubated at 37° C. for another 24 h. The media in each well was then removed, and the plates were washed carefully with PBS for 1 time. The biofilm in each well was fixed with 95% ethanol for 15 min and stained with 0.1% crystal violet for 15 min. After washing with Milli-Q water for three times, 33% v/v acetic acid (100 μL/well) was added to solubilize the crystal violet staining. OD 560 in each well was read to determine the biofilm formation. The biofilm formed as described above was also stained with acridine orange and Cy5 labeled PDC, and monitored by CLSM to observe the PDC penetration.

E. coli ATCC 25922 [2] = experiment: Mouse thigh infection model; format: in vivo, ICR mice; details: single i.v. injection 1 h after infection, equivalent of 5 mg streptomycin/kg, thighs at 24 h
Experimental: Mouse thigh infection model. ICR mice (female, 22-24 g, Charles River) were intramuscularly inoculated with E. coli ATCC 25922 (2×10^8 CFU/mL in saline, 0.05 mL bacteria suspension per thigh) on their both thighs and randomly divided into 4 groups (n=3). The mice were treated with PBS, free streptomycin (5 mg/kg), […] through i.v. injection 1 h after the infection. 24 h after the inoculation, animals were euthanized by CO2 asphyxiation and thigh muscles were collected and homogenized in 5 mL cold PBS with glass homogenizer. The homogenates in the amount of 0.1 mL were used for serial tenfold dilutions and spread onto nutrient agar plate for CFU determination.

[3] = tested on: broad spectrum of microbes; experiment: MIC, broth microdilution, across the strains tested; format: cell-based; details: E. coli, MRSA, P. aeruginosa (FIGS. 3G-I)
Experimental: Bacterial strains. S. aureus Newman was kindly provided by Prof Douglas Weibel; E. coli ATCC25922, S. aureus ATCC 33591 and P. aeruginosa ATCC 27853 were kindly donated by Prof. David Andes. E. coli DH5a was purchased from Thermo Fisher. The bacteria above were grown in Mueller Hinton Broth (MHB) media (Criterion, Santa Maria, Calif., USA). M. smegmatis mc^2155 strain was kindly donated by Prof. Adel M. Talaat, and was grown in Middlebrook 7H9 broth (HiMedia, West Chester, Pa., USA).
Minimal inhibitory concentration (MIC) measurements. The MIC of the different treatments on various bacteria strains was determined using the broth microdilution method. Briefly, 100 μL of the respective broth media containing serial twofold dilutions of each compound was placed into a 96-well tissue culture plate. Each bacterial strain was taken from an exponentially growing culture and diluted to 5×10^6 CFU/mL. 10 μL of such microbial suspension was inoculated in each well of the plate, resulting in a final bacteria concentration of approximately 5×10^5 CFU/mL. The bacteria were cultured at 37° C. for 24 h and their growth were observed by reading the optical density (OD) at 600 nm. The MIC was determined as the treatment concentration at which no microbial growth was observed. […]

P. aeruginosa ATCC 27853 = experiment: Mouse lung infection model; format: in vivo, ICR mice
Experimental: Mouse lung infection model. […] In another experiment of monitoring the mice survival for the lung infection model, the P. aeruginosa infected mice were given 2 treatments (1 h and 8 h after the infection) and their survival was observed using Kaplan-Meier curves (n=5).

[4] = tested on: MRSA in Raw 264.7 macrophage; experiment: Antibacterial activity for intracellular infection; format: cell-based; details: Raw 264.7 infected with S. aureus, pH 7.4 and 6.0, 1 day
Experimental: (§1) Antibacterial activity for intracellular infection. The antibacterial activity for intracellular infection was tested following the previous report. Briefly, macrophage Raw 264.7 cells were seeded in 96-well plate at a density of 1×10^4 cell/swell overnight and infected with MRSA or P. aeruginosa at a ratio of 10-20 bacteria per macrophage in FBS free RPMI 1640 medium. After 3 h incubation, the cells were washed and cultured in 1640 medium containing 10% FBS and 50 μg/mL gentamycin for one day to prevent the growth of extracellular bacteria. Then the macrophages were treated with free streptomycin or PDC for another day and lysed with Milli-Q water supplemented with 0.1% Triton-X. The cell lysates were serially diluted and the CFU in each well was determined by plating on MHB agar plates.

[5] = tested on: P. aeruginosa in Raw 264.7 macrophage; experiment: Antibacterial activity for intracellular infection; format: cell-based; details: Raw 264.7 infected with P. aeruginosa, pH 7.4 and 6.0, 1 day
Experimental: as §1

## Hex-Cys-Cys-DET-strep-DMA [Neutralized PDC]
E. coli ATCC 25922 [1]
  increase in MIC after 20 passages: 2 fold
MRSA biofilm; equivalent of 32 μg/mL streptomycin, acidic conditions
  biofilm removed: More than 90%
MRSA biofilm; streptomycin concentration 16 μg/mL
  biofilm eliminated: 75%
E. coli ATCC 25922 [2]
  reductions in CFU: more than 4 orders
[3]
  effect of pH (6.0 vs 7.4) on MIC, in words: performed significantly better at pH 6.0 than at 7.4
P. aeruginosa ATCC 27853; 2 i.v. injections (1 h and 8 h after the infection)
  survival, in words: all of the PDC treated mice survived
P. aeruginosa ATCC 27853; single i.v. injection 1 h after infection, CFU per lung at 12 h
  bacterial burden in lungs, in words: lowest bacterial burden in their lungs
[4]
  antibacterial efficacy on intracellular bacteria (CFU), in words: enhanced the antibacterial efficacy
[5]
  antibacterial efficacy on intracellular bacteria (CFU), in words: enhanced the antibacterial efficacy
